Assay results published in article PMC10526447 (Biomolecules, 2023).
pIC50: −log10 of the molar value. Read-outs that look alike come from different tables or passages of the source. Positions of bridges follow the written chain, without caps; N, C: chain ends. No end group written: not given here.

Tests used:
[1] = test system: Pseudotyped SARS-CoV-2 BA.1; settings: Pseudotyped BA.1, 48 h
[2] = test system: Pseudotyped SARS-CoV-2 BA.2; settings: Pseudotyped BA.2, 48 h
[3] = test system: Pseudotyped SARS-CoV-2 BA.2.12.1; settings: Pseudotyped BA.2.12.1, 48 h
[4] = test system: Pseudotyped SARS-CoV-2 BA.2.75; settings: Pseudotyped BA.2.75, 48 h
[5] = test system: Pseudotyped SARS-CoV-2 BA.5; settings: Pseudotyped BA.5, 48 h
[6] = test system: Pseudotyped SARS-CoV-2 BF.7; settings: Pseudotyped BF.7, 48 h
[7] = test system: Pseudotyped SARS-CoV-2 BA.4.6; settings: Pseudotyped BA.4.6, 48 h
[8] = test system: Pseudotyped SARS-CoV-2 XBB; settings: 48 h
[9] = test system: Pseudotyped SARS-CoV-2 BQ.1.1; settings: Pseudotyped BQ.1.1, 48 h
[10] = test system: live SARS-CoV-2 Delta variant (B.1.617.2); settings: live Delta variant (B.1.617.2, 2 h)
[11] = test system: Pseudotyped SARS-CoV-2 N501Y; settings: 48 h
[12] = test system: Pseudotyped SARS-CoV-2 B.1.1.7 (Alpha); settings: Pseudotyped B.1.1.7 (Alpha, 48 h)
[13] = test system: Pseudotyped SARS-CoV-2 B.1.351 (Beta); settings: Pseudotyped B.1.351 (Beta, 48 h)
[14] = test system: Pseudotyped SARS-CoV-2 P.1 (Gamma); settings: Pseudotyped P.1 (Gamma, 48 h)
[15] = test system: Pseudotyped SARS-CoV-2 B.1.617.2 (Delta); settings: Pseudotyped B.1.617.2 (Delta, 48 h)
[16] = test system: Pseudotyped SARS-CoV-2 C.37; settings: Pseudotyped C.37, 48 h
[17] = test system: Pseudotyped SARS-CoV-2 N501Y; settings: 48 h; remark: listed apart in the source
[18] = test system: Pseudotyped SARS-CoV-2 B.1.1.7 (Alpha); settings: Pseudotyped B.1.1.7 (Alpha, 48 h); remark: listed apart in the source
[19] = test system: Pseudotyped SARS-CoV-2 B.1.351 (Beta); settings: Pseudotyped B.1.351 (Beta, 48 h); remark: listed apart in the source
[20] = test system: Pseudotyped SARS-CoV-2 P.1 (Gamma); settings: Pseudotyped P.1 (Gamma, 48 h); remark: listed apart in the source
[21] = test system: Pseudotyped SARS-CoV-2 B.1.617.2 (Delta); settings: Pseudotyped B.1.617.2 (Delta, 48 h); remark: listed apart in the source
[22] = test system: Pseudotyped SARS-CoV-2 C.37; settings: Pseudotyped C.37, 48 h; remark: listed apart in the source

Question: Which results are given for `CC[C@H](C)[C@H](NC(=O)[C@H](C)NC(=O)[C@H](CCC(=O)O)NC(=O)[C@H](CCC(=O)O)NC(=O)[C@H](CC(C)C)NC(=O)[C@H](CCCCN)NC(=O)[C@H](CCCCN)NC(=O)[C@H](CCSC)NC(=O)[C@H](CCC(=O)O)NC(=O)[C@H](Cc1ccc(O)cc1)NC(=O)[C@H](CCC(=O)O)NC(=O)[C@H](CC(C)C)NC(=O)[C@H](CC(=O)O)NC(=O)[C@H](CC(C)C)NC(=O)[C@H](Cc1ccccc1)NC(=O)[C@@H](NC(=O)[C@@H](NC(=O)[C@H](CC(N)=O)NC(=O)[C@@H](NC(=O)[C@H](CCC(N)=O)NC(=O)[C@H](CC(=O)O)NC(=O)[C@H](CC(C)C)NC(=O)[C@@H](N)CO)[C@@H](C)CC)C(C)C)[C@@H](C)O)C(=O)N[C@@H](CCCCN)C(=O)N[C@@H](CCCCN)C(=O)N[C@@H](CC(C)C)C(=O)N[C@@H](CCC(=O)O)C(=O)N[C@@H](CCC(=O)O)C(=O)N[C@@H](CO)C(=O)N[C@@H](Cc1ccc(O)cc1)C(=O)N[C@H](C(=O)N[C@@H](CC(=O)O)C(=O)N[C@@H](CC(C)C)C(=O)N[C@@H](CCCCN)C(=O)N[C@@H](CCC(=O)O)C(=O)N[C@@H](CC(C)C)C(=O)O)[C@@H](C)CC` [EK1]?
Answer: pIC50 [1]: 6.48; pIC50 [2]: 6.26; pIC50 [3]: 6.23; pIC50 [4]: 6.61; pIC50 [5]: 6.16; pIC50 [6]: 6.59; pIC50 [7]: 6.70; pIC50 [8]: 6.44; pIC50 [9]: 6.42; pIC50 [10]: 6.53

Question: With “DCAWHLGELVWCTSLDQINVTFLDLEYEMKKLEEAIKKLEESYIDLKEL (disulfide 2-12) [IBP-EK1]” as the compound, how does the pIC50 [1] read?
Answer: 6.52

Question: And the pIC50 [2]?
Answer: 6.40

Question: And the pIC50 [3]?
Answer: 6.28

Question: What about the pIC50 [4] of the same compound?
Answer: 6.66

Question: What about the pIC50 [5] of the same compound?
Answer: 6.25

Question: And the pIC50 [6]?
Answer: 6.59

Question: And the pIC50 [7]?
Answer: 6.71

Question: What about the pIC50 [8] of the same compound?
Answer: 6.48

Question: What about the pIC50 [9] of the same compound?
Answer: 6.47

Question: And the pIC50 [10]?
Answer: 6.69

Question: With `CC(C)C[C@@H]1NC(=O)[C@H](Cc2c[nH]cn2)NC(=O)[C@H](Cc2c[nH]c3ccccc23)NC(=O)[C@H](C)NC(=O)[C@@H](NC(=O)[C@@H](N)CC(=O)O)CSSC[C@@H](C(=O)N[C@H](C(=O)O)[C@@H](C)O)NC(=O)[C@H](Cc2c[nH]c3ccccc23)NC(=O)[C@H](C(C)C)NC(=O)[C@H](CC(C)C)NC(=O)[C@H](CCC(=O)O)NC(=O)CNC1=O` [IBP] as the compound, how does the pIC50 [11] read?
Answer: < 4.30

Question: What about the pIC50 [12] of the same compound?
Answer: < 4.30

Question: And the pIC50 [13]?
Answer: < 4.30

Question: And the pIC50 [14]?
Answer: < 4.30

Question: What about the pIC50 [15] of the same compound?
Answer: < 4.30

Question: What about the pIC50 [16] of the same compound?
Answer: < 4.30

Question: And the pIC50 [1]?
Answer: < 4.30

Question: What about the pIC50 [2] of the same compound?
Answer: < 4.30

Question: And the pIC50 [3]?
Answer: < 4.30

Question: What about the pIC50 [4] of the same compound?
Answer: < 4.30

Question: What about the pIC50 [5] of the same compound?
Answer: < 4.30

Question: And the pIC50 [6]?
Answer: < 4.30

Question: And the pIC50 [7]?
Answer: < 4.30

Question: What about the pIC50 [8] of the same compound?
Answer: < 4.30

Question: And the pIC50 [9]?
Answer: < 4.30

Question: What about the pIC50 [17] of the same compound?
Answer: < 4.30

Question: What about the pIC50 [18] of the same compound?
Answer: < 4.30

Question: And the pIC50 [19]?
Answer: < 4.30

Question: And the pIC50 [20]?
Answer: < 4.30

Question: What about the pIC50 [21] of the same compound?
Answer: < 4.30

Question: And the pIC50 [22]?
Answer: < 4.30

Question: And the pIC50 [10]?
Answer: < 4.30
